Broadly, the pKi is −log10 of the Ki, conventionally taken in molar units. As a reminder, the Ki is the equilibrium dissociation constant of an inhibitor or competing ligand from its target.

pKi: −log10 of the molar value. Some results are limits rather than exact numbers.

From patent publication US7772263B2, “Compounds for the treatment of inflammatory disorders” (Schering Corporation, priority 2006, dated 2010) come the findings set out here.

For one experiment, the target named is T1, purified catalytic domain of recombinant human TACE (rhTACEc) (Homo sapiens, UniProt P78536, N452Q/S266A).
T1 construct: rhTACEc, Residue 215 to 477 with two mutation (S266A and N4520) and a 6×His tail; 6xHis (C); made in house; host or cells: baculovirus/Hi5 insect cells
T1 sequence (P78536 215-477 S266A/N452Q limits assumed): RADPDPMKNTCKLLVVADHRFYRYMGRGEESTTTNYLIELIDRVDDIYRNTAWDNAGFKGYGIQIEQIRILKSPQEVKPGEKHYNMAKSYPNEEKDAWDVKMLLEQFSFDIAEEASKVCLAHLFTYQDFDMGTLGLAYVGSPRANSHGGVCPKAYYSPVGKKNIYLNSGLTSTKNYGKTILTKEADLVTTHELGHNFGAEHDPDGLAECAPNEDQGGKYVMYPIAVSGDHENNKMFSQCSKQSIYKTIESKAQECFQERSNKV
In words: TACE kinetic assay, cleavage of internally quenched fluorescent peptide substrate SPDL-3. The experiment is classed as biochemical. Particulars: TACE inhibition, Table 1001; read-out: Ki Rating.
On to `COc1ccc2c(c1)C(=O)N(C[C@@]1(C#Cc3ccc(F)c(C#N)c3)NC(=O)NC1=O)C2` [Compound 906], for which the pKi is greater than 8.30.
With `COc1ccc2c(c1)C(=O)N(C[C@@]1(C#Cc3ccc(OC)c(F)c3)NC(=O)NC1=O)C2` [Compound 907], the pKi was greater than 8.30.
For the molecule `COc1ccc2c(c1)C(=O)N(C[C@@]1(C#Cc3cc(F)cc(F)c3OC)NC(=O)NC1=O)C2` [Compound 908], the pKi was greater than 8.30.
In the case of `COc1ccc2c(c1)C(=O)N(C[C@@]1(C#Cc3ccc(-c4ccccn4)s3)NC(=O)NC1=O)C2` [Compound 909], the negative-log Ki (pKi) is greater than 8.30.
Take `COc1ccc2c(c1)C(=O)N(C[C@@]1(C#Cc3nc4ccccc4s3)NC(=O)NC1=O)C2` [Compound 910]: the pKi is greater than 8.30.
Regarding `COc1ccc2c(c1)C(=O)N(C[C@@]1(C#Cc3c(C)n[nH]c3C)NC(=O)NC1=O)C2` [Compound 911], the pKi was greater than 8.30.
On the same count and under the same terms, the value for `COc1ccc2c(c1)C(=O)N(C[C@@]1(C#Cc3c(N)ccc4scnc34)NC(=O)NC1=O)C2` [Compound 912] was greater than 8.30; that for `COc1ccc2c(c1)C(=O)N(C[C@@]1(C#Cc3ncnc4c3ncn4C(C)C)NC(=O)NC1=O)C2` [Compound 913] was greater than 8.30.
On to `COc1ccc2c(c1)C(=O)N(C[C@@]1(C#Cc3ncnc4[nH]cnc34)NC(=O)NC1=O)C2` [Compound 914], for which the pKi is greater than 8.30.
Same read-out and setting: next, `COC(=O)c1ccc(C#C[C@]2(CN3Cc4ccc(OC)cc4C3=O)NC(=O)NC2=O)o1` [Compound 915]: greater than 8.30; `COc1ccc2c(c1)C(=O)N(C[C@@]1(C#Cc3ccc(C(N)=O)o3)NC(=O)NC1=O)C2` [Compound 916]: greater than 8.30.
In the case of `COc1ccc2c(c1)C(=O)N(C[C@@]1(C#Cc3ccc(C(=O)O)o3)NC(=O)NC1=O)C2` [Compound 917], the pKi is greater than 8.30.
The same measure, in the same setting: the value for `COc1ccc2c(c1)C(=O)N(C[C@@]1(C#Cc3cnc(C)n3C)NC(=O)NC1=O)C2` [Compound 918] was greater than 8.30; that for `CCc1cc(C#C[C@]2(CN3Cc4ccc(OC)cc4C3=O)NC(=O)NC2=O)cc2sc(N)nc12` [Compound 919] was greater than 8.30.
On the same count and under the same terms, next, `COc1ccc2c(c1)C(=O)N(C[C@@]1(C#Cc3cnccc3N)NC(=O)NC1=O)C2` [Compound 920]: greater than 8.30; `O=C1NC(=O)[C@@](C#Cc2cc(F)cc(F)c2)(CN2Cc3ccc(OC(F)F)cc3C2=O)N1` [Compound 922]: greater than 8.30; `COC(=O)c1ncccc1C#C[C@]1(CN2Cc3ccc(OC)cc3C2=O)NC(=O)NC1=O` [Compound 924]: greater than 8.30.
Same read-out and setting: next, `COc1ccc2c(c1)C(=O)N(C[C@@]1(C#Cc3cccnc3C(=O)O)NC(=O)NC1=O)C2` [Compound 925]: greater than 8.30; `COc1ccc2c(c1)C(=O)N(C[C@@]1(C#Cc3ccncc3N)NC(=O)NC1=O)C2` [Compound 926]: 7.60 to 8.30; `COc1ccc2c(c1)C(=O)N(C[C@@]1(C#Cc3ncccc3N)NC(=O)NC1=O)C2` [Compound 928]: greater than 8.30.
With `COc1ccc2c(c1)C(=O)N(C[C@@]1(C#Cc3cccnc3N)NC(=O)NC1=O)C2` [Compound 930], the pKi was greater than 8.30.
`COc1ccc2c(c1)C(=O)N(C[C@@]1(C#Cc3cccc(C(C)C)c3)NC(=O)NC1=O)C2` [Compound 931]: the negative-log Ki (pKi) is greater than 8.30.
On the same count and under the same terms, next, `COc1ccc2c(c1)C(=O)N(C[C@@]1(C#Cc3cnc4ncccc4c3)NC(=O)NC1=O)C2` [Compound 932]: greater than 8.30; `COc1ccc2c(c1)C(=O)N(C[C@@]1(C#Cc3ccc4ncccc4c3)NC(=O)NC1=O)C2` [Compound 933]: greater than 8.30.
Take `COc1ccc2c(c1)C(=O)N(C[C@@]1(C#Cc3cc(C(F)(F)F)cc(C(F)(F)F)c3)NC(=O)NC1=O)C2` [Compound 934]: the negative-log Ki (pKi) was greater than 8.30.
Same read-out and setting: the value for `COc1ccc2c(c1)C(=O)N(C[C@@]1(C#Cc3ccc(OC(F)F)cc3)NC(=O)NC1=O)C2` [Compound 937] was greater than 8.30; that for `COc1ccc2c(c1)C(=O)N(C[C@@]1(C#Cc3cc(F)c(Cl)c(F)c3)NC(=O)NC1=O)C2` [Compound 938] was greater than 8.30; that for `COc1ccc2c(c1)C(=O)N(C[C@@]1(C#Cc3ccc(C#N)c(F)c3)NC(=O)NC1=O)C2` [Compound 939] was greater than 8.30.
Same read-out and setting: next, `COc1ccc2c(c1)C(=O)N(C[C@@]1(C#Cc3ccc4ccn(C)c4n3)NC(=O)NC1=O)C2` [Compound 940]: greater than 8.30; `COc1ccc2c(c1)C(=O)N(C[C@@]1(C#Cc3cnc4c(ccn4C)c3)NC(=O)NC1=O)C2` [Compound 941]: greater than 8.30.
Still for that read-out and setting: next, `COc1ccc2c(c1)C(=O)N(C[C@@]1(C#Cc3cnc4nc(O)ccc4c3)NC(=O)NC1=O)C2` [Compound 942]: greater than 8.30; `O=C1NC(=O)[C@@](C#Cc2cccnc2)(CN2Cc3ccc(OC(F)F)cc3C2=O)N1` [Compound 943]: greater than 8.30.
On to `COc1ccc2c(c1)C(=O)N(C[C@@]1(C#Cc3cnc4nc(N)c(C#N)cc4c3)NC(=O)NC1=O)C2` [Compound 944], for which the pKi was greater than 8.30.
On the same count and under the same terms, the value for `COc1ccc2c(c1)C(=O)N(C[C@@]1(C#Cc3cccc(S(N)(=O)=O)c3)NC(=O)NC1=O)C2` [Compound 945] was greater than 8.30; that for `COc1ccc2c(c1)C(=O)N(C[C@@]1(C#Cc3ccc(S(N)(=O)=O)cc3)NC(=O)NC1=O)C2` [Compound 946] was greater than 8.30.
On to `COc1ccc2c(c1)C(=O)N(C[C@@]1(C#Cc3ccccc3S(N)(=O)=O)NC(=O)NC1=O)C2` [Compound 947], for which the pKi was greater than 8.30.
On the same count and under the same terms, next, `COc1ccc2c(c1)C(=O)N(C[C@@]1(C#Cc3cn(C)c(C)n3)NC(=O)NC1=O)C2` [Compound 948]: greater than 8.30; `COc1ccc2c(c1)C(=O)N(C[C@@]1(C#Cc3cnc4[nH]ccc4c3)NC(=O)NC1=O)C2` [Compound 949]: greater than 8.30.
The same measure, in the same setting: next, `COc1ccc2c(c1)C(=O)N(C[C@@]1(C#Cc3cc(OC)cc4sc(N)nc34)NC(=O)NC1=O)C2` [Compound 950]: greater than 8.30.
Take `COc1ccc2c(c1)C(=O)N(C[C@@]1(C#Cc3ccc4nccc(OC)c4c3)NC(=O)NC1=O)C2` [Compound 951]: the pKi is greater than 8.30.
Still for that read-out and setting: the value for `COc1ccc2c(c1)C(=O)N(C[C@@]1(C#Cc3nccc4cc[nH]c34)NC(=O)NC1=O)C2` [Compound 952] was greater than 8.30.
On the same count and under the same terms, the value for `COc1ccc2c(c1)C(=O)N(C[C@@]1(C#Cc3cncc4cc[nH]c34)NC(=O)NC1=O)C2` [Compound 953] was greater than 8.30; that for `CNC(=O)c1ccc(C#C[C@]2(CN3Cc4ccc(OC)cc4C3=O)NC(=O)NC2=O)o1` [Compound 954] was greater than 8.30.
Same read-out and setting: next, `COc1ccc2c(c1)C(=O)N(C[C@@]1(C#Cc3cncc4cccnc34)NC(=O)NC1=O)C2` [Compound 955]: greater than 8.30; `COC(=O)c1ccc2cncc(C#C[C@]3(CN4Cc5ccc(OC)cc5C4=O)NC(=O)NC3=O)c2n1` [Compound 956]: greater than 8.30.
With `COc1ccc2c(c1)C(=O)N(C[C@@]1(C#Cc3cncc4ccc(C(N)=O)nc34)NC(=O)NC1=O)C2` [Compound 957], the pKi is greater than 8.30.
On the same count and under the same terms, next, `CNC(=O)c1ccc2cncc(C#C[C@]3(CN4Cc5ccc(OC)cc5C4=O)NC(=O)NC3=O)c2n1` [Compound 958]: greater than 8.30.
As for `COc1ccc2c(c1)C(=O)N(C[C@@]1(C#Cc3cncc4ccc(C(=O)O)nc34)NC(=O)NC1=O)C2` [Compound 959], the pKi is greater than 8.30.
Same read-out and setting: the value for `COc1ccc2c(c1)C(=O)N(C[C@@]1(C#Cc3cnc4[nH]cnc4c3)NC(=O)NC1=O)C2` [Compound 960] was greater than 8.30; that for `COc1ccc2c(c1)C(=O)N(C[C@@]1(C#Cc3cnc4[nH]c(C)nc4c3)NC(=O)NC1=O)C2` [Compound 961] was greater than 8.30; that for `COc1ccc2c(c1)C(=O)N(C[C@@]1(C#Cc3cc4nc[nH]c4nc3C)NC(=O)NC1=O)C2` [Compound 962] was greater than 8.30.
The same measure, in the same setting: the value for `COc1ccc2c(c1)C(=O)N(CC1(C#Cc3ccc4ncsc4c3)NC(=O)NC1=O)C2` (stereo not drawn) [Compound 963] was greater than 8.30; that for `COc1ccc2c(c1)C(=O)N(C[C@]1(C#Cc3ccccc3C(C)C)NC(=O)NC1=O)C2` [Compound 964] was 7.60 to 8.30.
Still for that read-out and setting: next, `COc1ccc2c(c1)C(=O)N(C[C@]1(C#Cc3nc4ccccc4s3)NC(=O)NC1=O)C2` [Compound 965]: 7.00 to 7.60; `COc1ccc2c(c1)C(=O)N(C[C@]1(C#Cc3cnc4ncccc4c3)NC(=O)NC1=O)C2` [Compound 966]: 7.00 to 7.60.
In the case of `COc1ccc2c(c1)C(=O)N(C[C@]1(C#Cc3cccc(C(C)C)c3)NC(=O)NC1=O)C2` [Compound 967], the pKi was 7.00 to 7.60.
`COc1ccc2c(c1)C(=O)N(C[C@]1(C#Cc3ccc4ncccc4c3)NC(=O)NC1=O)C2` [Compound 968]: the pKi was 7.00 to 7.60.
The same measure, in the same setting: the value for `O=C1NC(=O)C(C#Cc2cc(F)cc(F)c2)(CN2Cc3ccc(OC(F)F)cc3C2=O)N1` (stereo not drawn) [Compound 969] was greater than 8.30.
For the molecule `O=C1NC(=O)[C@](C#Cc2cc(F)cc(F)c2)(CN2Cc3ccc(OC(F)F)cc3C2=O)N1` [Compound 970], the pKi is less than 7.00.
The same measure, in the same setting: next, `O=C1NC(=O)C(C#Cc2ccc(F)cc2F)(CN2Cc3ccc(OC(F)F)cc3C2=O)N1` (stereo not drawn) [Compound 971]: greater than 8.30; `COc1ccc2c(c1)C(=O)N(C[C@@]1(C#Cc3ccc(S(=O)(=O)O)cc3)NC(=O)NC1=O)C2` [Compound 973]: greater than 8.30.
On the same count and under the same terms, the value for `COc1ccc2c(c1)C(=O)N(C[C@@]1(C#Cc3ccccc3)NC(=O)NC1=O)C2` [Compound 1002] was greater than 8.30.
Still for that read-out and setting: next, `O=C1NC(=O)[C@@](C#Cc2cc(F)cc(F)c2)(CN2Cc3ccc(Cl)cc3C2=O)N1` [Compound 1003B]: greater than 8.30; `O=C1NC(=O)[C@@](C#Cc2cccc(F)c2)(CN2Cc3ccc(Cl)cc3C2=O)N1` [Compound 1003C]: greater than 8.30.

The same experiment, now with this note: rhTACEc 70 pM, 30 μM SPDL-3, 90 min pre-incubation at 25° C.; read-out: Ki (nM), TACE inhibitory activity.
Take `COc1ccc2c(c1)C(=O)N(C[C@@]1(C#Cc3cccnc3N)NC(=O)NC1=O)C2` [Compound 930]: the Ki is 0.56 nM.
Still for that read-out and setting: the value for `COc1ccc2c(c1)C(=O)N(C[C@@]1(C#Cc3ccc4scnc4c3)NC(=O)NC1=O)C2` [Compound 972] was 0.12 nM.
